{"source": "ChEMBL document CHEMBL5465560", "about": "“Selectivity Literature for EUbOPEN Chemogenomic Library” (2024)", "key": {"[1]": {"target": "T1, TGF-beta receptor type-1 (Homo sapiens) (UniProt P36897)", "T1 sequence (whole entry)": "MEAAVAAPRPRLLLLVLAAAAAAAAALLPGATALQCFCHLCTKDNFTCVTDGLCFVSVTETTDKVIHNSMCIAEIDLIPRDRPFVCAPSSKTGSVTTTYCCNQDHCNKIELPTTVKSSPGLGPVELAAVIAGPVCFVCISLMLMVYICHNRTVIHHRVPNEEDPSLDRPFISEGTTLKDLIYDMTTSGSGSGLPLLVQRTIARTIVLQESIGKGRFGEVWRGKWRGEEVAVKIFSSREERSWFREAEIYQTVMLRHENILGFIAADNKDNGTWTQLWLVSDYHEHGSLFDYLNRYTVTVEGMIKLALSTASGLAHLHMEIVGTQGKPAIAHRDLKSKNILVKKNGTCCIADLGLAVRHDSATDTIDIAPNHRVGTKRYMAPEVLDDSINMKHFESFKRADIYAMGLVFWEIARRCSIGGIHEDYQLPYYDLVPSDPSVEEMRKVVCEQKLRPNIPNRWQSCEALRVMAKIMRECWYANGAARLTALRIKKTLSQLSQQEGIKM", "settings": "at 10 µM"}, "[2]": {"target": "CDK4/Cyclin D3 (Homo sapiens) (UniProt P11802+P30281)", "assay": "(§1) Selectivity interaction (KinomeScan (DiscoverX)) EUB0001049a CDK4", "type": "protein-complex assay", "settings": "at 1 µM"}, "[3]": {"target": "Cyclin-dependent kinase 4/cyclin D1 (Homo sapiens) (UniProt P11802+P24385)", "assay": "as §1", "type": "protein-complex assay", "settings": "at 1 µM"}, "[4]": {"target": "Serine/threonine-protein kinase PLK3 (Homo sapiens, UniProt Q9H4B4)", "sequence (Q9H4B4 whole entry, looked up)": "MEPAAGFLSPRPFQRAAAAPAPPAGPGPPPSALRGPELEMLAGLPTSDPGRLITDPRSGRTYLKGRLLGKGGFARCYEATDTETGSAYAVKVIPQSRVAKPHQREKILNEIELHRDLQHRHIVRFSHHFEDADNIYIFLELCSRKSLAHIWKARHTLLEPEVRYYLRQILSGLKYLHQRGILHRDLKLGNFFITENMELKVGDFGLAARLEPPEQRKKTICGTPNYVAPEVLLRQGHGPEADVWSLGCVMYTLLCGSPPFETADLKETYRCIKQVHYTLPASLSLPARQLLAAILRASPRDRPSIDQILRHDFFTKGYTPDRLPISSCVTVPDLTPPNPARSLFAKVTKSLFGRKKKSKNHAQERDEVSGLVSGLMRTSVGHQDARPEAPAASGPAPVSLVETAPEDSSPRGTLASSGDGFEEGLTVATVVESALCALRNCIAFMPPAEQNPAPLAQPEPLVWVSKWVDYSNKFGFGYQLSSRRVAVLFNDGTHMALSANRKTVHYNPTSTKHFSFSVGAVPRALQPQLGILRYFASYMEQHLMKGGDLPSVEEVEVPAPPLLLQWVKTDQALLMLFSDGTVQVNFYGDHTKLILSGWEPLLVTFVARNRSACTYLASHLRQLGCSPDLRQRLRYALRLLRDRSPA", "assay": "Selectivity interaction (Ambit KINOMEscan and KiNATiv profiling in Jurkat cells) EUB0000090b PLK3", "type": "cell-based", "settings": "at 1 µM"}, "[5]": {"target": "Platelet-derived growth factor receptor alpha (Homo sapiens, UniProt P16234)", "sequence (P16234 whole entry)": "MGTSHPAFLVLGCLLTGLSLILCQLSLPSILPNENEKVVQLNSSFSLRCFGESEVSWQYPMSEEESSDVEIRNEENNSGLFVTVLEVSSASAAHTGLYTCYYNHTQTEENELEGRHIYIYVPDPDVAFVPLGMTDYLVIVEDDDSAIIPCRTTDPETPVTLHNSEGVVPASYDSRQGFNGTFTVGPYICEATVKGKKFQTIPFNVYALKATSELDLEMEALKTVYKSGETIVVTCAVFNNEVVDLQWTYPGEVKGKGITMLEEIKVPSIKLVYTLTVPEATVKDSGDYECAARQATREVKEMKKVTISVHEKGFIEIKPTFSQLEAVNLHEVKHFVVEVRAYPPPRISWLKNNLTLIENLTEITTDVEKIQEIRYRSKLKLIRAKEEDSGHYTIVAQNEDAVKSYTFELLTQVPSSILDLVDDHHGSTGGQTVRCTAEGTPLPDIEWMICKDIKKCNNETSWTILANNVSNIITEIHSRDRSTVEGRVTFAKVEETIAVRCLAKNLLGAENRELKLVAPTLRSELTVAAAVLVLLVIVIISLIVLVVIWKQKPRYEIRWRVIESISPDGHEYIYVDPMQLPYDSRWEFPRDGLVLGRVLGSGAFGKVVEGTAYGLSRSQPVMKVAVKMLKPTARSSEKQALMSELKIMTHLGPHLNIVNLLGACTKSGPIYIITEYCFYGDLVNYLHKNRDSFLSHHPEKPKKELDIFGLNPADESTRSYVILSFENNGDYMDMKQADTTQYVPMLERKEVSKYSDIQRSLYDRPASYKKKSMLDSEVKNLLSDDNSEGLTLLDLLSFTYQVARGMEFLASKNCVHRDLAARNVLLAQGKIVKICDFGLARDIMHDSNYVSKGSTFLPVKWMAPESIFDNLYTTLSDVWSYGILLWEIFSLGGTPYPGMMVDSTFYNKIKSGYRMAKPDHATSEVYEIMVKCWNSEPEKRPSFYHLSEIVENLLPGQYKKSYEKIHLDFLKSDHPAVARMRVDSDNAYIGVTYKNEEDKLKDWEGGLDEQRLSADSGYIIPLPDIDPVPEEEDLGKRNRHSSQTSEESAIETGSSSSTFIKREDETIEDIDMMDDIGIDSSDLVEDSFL", "assay": "Selectivity interaction (Kinase panel (Invitrogen)) EUB0000639a PDGFRA", "settings": "at 200 nM"}, "[6]": {"target": "Mitogen-activated protein kinase 1 (Homo sapiens, UniProt P28482)", "sequence (P28482 whole entry)": "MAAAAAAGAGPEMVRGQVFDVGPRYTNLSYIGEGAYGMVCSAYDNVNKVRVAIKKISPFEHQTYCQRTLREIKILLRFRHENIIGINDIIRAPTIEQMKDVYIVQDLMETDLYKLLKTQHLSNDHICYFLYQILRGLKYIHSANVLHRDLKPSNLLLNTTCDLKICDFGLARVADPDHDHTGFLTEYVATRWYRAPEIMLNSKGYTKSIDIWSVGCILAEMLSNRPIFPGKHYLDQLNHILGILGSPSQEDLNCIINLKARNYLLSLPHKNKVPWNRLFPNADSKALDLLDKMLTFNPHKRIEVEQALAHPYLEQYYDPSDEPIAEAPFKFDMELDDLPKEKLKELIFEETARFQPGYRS", "assay": "Selectivity interaction (Rxn Biology Kinase assay) EUB0001632a MAPK1", "settings": "at 10 µM"}, "[7]": {"target": "T2, Serine/threonine-protein kinase RIO3 (Homo sapiens) (UniProt O14730)", "T2 sequence (whole entry)": "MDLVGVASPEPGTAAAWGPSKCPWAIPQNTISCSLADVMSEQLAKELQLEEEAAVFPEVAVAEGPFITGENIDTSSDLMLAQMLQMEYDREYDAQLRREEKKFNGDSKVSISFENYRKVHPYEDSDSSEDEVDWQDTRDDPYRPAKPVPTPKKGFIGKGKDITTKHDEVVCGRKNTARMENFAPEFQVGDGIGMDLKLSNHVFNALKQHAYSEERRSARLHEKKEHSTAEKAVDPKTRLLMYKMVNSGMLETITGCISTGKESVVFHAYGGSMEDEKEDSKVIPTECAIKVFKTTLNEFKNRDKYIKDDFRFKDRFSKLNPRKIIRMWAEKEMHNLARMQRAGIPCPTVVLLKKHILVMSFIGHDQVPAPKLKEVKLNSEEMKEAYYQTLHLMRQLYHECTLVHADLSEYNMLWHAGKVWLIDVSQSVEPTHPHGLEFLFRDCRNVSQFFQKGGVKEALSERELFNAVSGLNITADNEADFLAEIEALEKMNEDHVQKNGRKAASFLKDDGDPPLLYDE", "assay": "Selectivity interaction (KinomeScan (DiscoverX)) EUB0000229b RIOK3", "settings": "at 10 µM"}, "[8]": {"target": "Receptor-interacting serine/threonine-protein kinase 2 (Homo sapiens, UniProt O43353)", "sequence (O43353 whole entry)": "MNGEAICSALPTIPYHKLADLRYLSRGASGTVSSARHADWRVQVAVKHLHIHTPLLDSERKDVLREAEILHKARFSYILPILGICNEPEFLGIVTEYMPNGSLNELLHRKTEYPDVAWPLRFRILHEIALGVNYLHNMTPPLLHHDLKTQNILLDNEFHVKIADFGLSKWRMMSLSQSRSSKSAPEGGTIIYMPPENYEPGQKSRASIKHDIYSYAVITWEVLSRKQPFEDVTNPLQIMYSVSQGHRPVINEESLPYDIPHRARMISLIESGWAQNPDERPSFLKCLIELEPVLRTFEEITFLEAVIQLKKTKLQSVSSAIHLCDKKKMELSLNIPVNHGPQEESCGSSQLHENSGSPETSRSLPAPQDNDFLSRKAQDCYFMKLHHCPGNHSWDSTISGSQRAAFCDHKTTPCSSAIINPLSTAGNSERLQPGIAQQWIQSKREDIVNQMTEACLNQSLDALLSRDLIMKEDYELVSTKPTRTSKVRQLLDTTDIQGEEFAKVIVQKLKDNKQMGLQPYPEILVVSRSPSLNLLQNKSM", "assay": "Selectivity interaction (KinomeScan (DiscoverX)) EUB0000229b RIPK2", "settings": "at 10 µM"}, "[9]": {"target": "Serine/threonine-protein kinase SIK3 (Homo sapiens) (UniProt Q9Y2K2)", "sequence (Q9Y2K2 whole entry, looked up)": "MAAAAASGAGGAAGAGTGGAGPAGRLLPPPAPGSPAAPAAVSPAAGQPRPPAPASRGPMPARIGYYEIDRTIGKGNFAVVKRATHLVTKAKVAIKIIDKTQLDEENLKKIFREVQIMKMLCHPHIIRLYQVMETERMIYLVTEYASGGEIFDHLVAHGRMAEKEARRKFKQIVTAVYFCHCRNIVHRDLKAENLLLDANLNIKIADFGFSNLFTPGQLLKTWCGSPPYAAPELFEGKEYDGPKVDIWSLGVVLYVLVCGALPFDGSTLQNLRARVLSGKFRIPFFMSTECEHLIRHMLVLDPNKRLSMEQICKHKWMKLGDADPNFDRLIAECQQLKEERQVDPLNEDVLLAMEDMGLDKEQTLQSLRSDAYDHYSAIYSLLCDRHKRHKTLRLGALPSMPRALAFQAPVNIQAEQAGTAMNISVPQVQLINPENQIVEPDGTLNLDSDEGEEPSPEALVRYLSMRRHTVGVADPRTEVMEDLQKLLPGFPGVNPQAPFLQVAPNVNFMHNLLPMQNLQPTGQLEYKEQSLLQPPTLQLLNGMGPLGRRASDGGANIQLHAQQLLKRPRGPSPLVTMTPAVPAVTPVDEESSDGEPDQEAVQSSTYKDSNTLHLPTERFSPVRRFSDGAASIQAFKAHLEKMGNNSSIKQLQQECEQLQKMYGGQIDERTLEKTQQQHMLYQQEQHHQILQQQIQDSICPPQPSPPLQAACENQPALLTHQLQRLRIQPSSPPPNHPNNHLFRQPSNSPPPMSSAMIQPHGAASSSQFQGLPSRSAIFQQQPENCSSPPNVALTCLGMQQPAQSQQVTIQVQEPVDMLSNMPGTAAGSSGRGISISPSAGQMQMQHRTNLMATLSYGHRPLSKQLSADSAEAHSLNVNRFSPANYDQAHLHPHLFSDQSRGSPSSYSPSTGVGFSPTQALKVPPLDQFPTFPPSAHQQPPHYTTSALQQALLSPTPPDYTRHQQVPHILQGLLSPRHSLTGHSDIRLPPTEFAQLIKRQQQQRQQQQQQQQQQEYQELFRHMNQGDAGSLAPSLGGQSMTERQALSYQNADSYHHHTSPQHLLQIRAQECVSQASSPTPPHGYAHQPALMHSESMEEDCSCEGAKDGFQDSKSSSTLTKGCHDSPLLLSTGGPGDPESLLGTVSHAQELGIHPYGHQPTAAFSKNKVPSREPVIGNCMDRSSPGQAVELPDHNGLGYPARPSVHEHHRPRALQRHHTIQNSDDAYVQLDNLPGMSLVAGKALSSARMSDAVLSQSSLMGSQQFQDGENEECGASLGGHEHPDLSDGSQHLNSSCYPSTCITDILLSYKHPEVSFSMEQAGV", "assay": "Selectivity interaction (ActivX KiNativ screen (ex vivo kinase selectivity in human PBMCs)) EUB0001619a SIK3", "type": "cell-based", "settings": "PBMC, at 1 µM"}, "[10]": {"target": "T3, Serine/threonine-protein kinase TAO2 (Homo sapiens) (UniProt Q9UL54)", "T3 sequence (whole entry)": "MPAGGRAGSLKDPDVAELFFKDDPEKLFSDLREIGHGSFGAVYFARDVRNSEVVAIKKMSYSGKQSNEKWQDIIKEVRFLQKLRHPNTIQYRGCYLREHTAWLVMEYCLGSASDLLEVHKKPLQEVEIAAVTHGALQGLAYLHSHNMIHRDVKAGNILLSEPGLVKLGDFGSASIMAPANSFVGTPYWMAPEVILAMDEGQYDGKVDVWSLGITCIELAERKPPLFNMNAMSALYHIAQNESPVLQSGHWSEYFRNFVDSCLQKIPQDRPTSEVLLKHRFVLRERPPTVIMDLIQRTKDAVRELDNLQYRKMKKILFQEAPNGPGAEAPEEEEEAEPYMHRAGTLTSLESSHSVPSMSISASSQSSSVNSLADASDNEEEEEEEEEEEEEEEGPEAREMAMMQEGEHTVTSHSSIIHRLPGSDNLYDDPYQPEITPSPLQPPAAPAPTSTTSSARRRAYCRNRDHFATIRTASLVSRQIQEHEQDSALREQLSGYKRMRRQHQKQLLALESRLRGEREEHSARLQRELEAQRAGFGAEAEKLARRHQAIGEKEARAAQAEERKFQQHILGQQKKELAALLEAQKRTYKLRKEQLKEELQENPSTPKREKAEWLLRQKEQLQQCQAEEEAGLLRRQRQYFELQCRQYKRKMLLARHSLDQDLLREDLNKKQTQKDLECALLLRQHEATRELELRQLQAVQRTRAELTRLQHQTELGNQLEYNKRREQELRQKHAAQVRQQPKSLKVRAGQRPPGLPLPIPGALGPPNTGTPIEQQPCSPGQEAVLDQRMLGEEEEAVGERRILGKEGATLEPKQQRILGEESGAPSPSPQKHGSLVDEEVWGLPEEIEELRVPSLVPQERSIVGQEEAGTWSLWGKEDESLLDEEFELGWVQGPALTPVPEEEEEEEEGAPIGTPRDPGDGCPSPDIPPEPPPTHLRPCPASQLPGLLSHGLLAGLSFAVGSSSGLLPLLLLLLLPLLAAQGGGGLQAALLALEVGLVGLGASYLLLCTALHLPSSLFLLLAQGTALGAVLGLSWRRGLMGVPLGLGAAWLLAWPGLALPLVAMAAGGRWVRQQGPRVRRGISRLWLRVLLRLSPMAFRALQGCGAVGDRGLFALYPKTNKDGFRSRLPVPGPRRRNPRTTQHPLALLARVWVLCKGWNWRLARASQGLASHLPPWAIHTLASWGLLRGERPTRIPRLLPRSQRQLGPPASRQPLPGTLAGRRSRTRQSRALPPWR", "assay": "Selectivity interaction (SelectScreen profiling (Invitrogen)) EUB0000607a TAOK2", "settings": "at 2 µM"}, "[11]": {"target": "Acylglycerol kinase, mitochondrial (Homo sapiens) (UniProt Q53H12)", "sequence (Q53H12 whole entry)": "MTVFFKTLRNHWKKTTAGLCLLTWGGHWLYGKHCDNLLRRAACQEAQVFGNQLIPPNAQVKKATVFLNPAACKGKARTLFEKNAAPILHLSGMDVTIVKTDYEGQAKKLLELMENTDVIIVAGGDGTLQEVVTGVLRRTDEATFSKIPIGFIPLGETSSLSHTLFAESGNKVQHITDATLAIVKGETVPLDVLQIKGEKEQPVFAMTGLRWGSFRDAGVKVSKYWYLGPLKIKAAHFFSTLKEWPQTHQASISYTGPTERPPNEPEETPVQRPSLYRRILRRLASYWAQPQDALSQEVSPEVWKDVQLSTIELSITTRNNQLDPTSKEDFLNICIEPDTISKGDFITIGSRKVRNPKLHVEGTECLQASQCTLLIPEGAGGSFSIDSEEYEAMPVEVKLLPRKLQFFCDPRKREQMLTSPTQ", "assay": "Selectivity interaction (Kinase panel (KiNativ target engagement assay in Jurkat cells)) EUB0001635a AGK", "type": "cell-based", "settings": "Selectivity number of off-targets 0.0, Selectivity number of targets 233.0, Source Knowledge https://www.sciencedirect.com/science/article/pii/S2451945619300674?via%3Dihub, at 1 µM"}}, "data": [{"compound": "Cc1cc([C@@H](C)Nc2ccccc2C(=O)O)c2nc(N3CCOCC3)cc(=O)n2c1", "note": "[AZD-6482]", "values": [{"measurement": "% of control", "setting": "[1]", "result": 100, "unit": "%"}]}, {"compound": "COc1cc(Nc2nc(C)cc(-c3cnn4nc(OC)ccc34)n2)cc(C(F)(F)F)c1", "values": [{"measurement": "% of control", "setting": "[2]", "result": 98, "unit": "%"}, {"measurement": "% of control", "setting": "[3]", "result": 100, "unit": "%"}]}, {"compound": "CN(C)C/C=C/C(=O)Nc1ccc(C(=O)N2CCCC(Nc3ncc(Cl)c(-c4c[nH]c5ccccc45)n3)C2)cc1", "note": "(stereo unspecified)", "values": [{"measurement": "% of control", "setting": "[4]", "result": 86, "unit": "%"}]}, {"compound": "CC[C@@H]1[C@H](F)C(=O)N[C@@H]1COc1nccc2cc(C(N)=O)c(OC)cc12", "note": "[ZIMLOVISERTIB]", "values": [{"measurement": "% of inhibition", "setting": "[5]", "result": -1.69, "unit": "%"}]}, {"compound": "Cn1cc(-n2cnc3c(NCc4nc5cc(Cl)c(Cl)cc5[nH]4)nc(N4CCOCC4)nc32)cn1", "values": [{"measurement": "% of inhibition", "setting": "[6]", "result": 5.79, "unit": "%"}]}, {"compound": "COc1cc(N(C)c2ccnc3ccc(C(F)(F)F)cc23)cc(OC)c1OC", "values": [{"measurement": "% binding", "setting": "[7]", "result": 90, "unit": "%"}, {"measurement": "% binding", "setting": "[8]", "result": 58, "unit": "%"}]}, {"compound": "N#Cc1cccc(-c2c[nH]c3ncnc(N4CCOCC4)c23)c1", "values": [{"measurement": "% of inhibition", "setting": "[9]", "result": 14, "unit": "%"}]}, {"compound": "CNC(=O)Nc1ccc(-c2nc(N3CC4CCC(C3)O4)c3cnn(C4CCC5(CC4)OCCO5)c3n2)cc1", "values": [{"measurement": "% of inhibition", "setting": "[10]", "result": 3, "unit": "%"}]}, {"compound": "C=CC(=O)Nc1ccc(C(=O)Nc2[nH]nc3c2CN(C(=O)N[C@H](CN(C)C)c2ccccc2)C3(C)C)cc1", "values": [{"measurement": "% of engagement", "setting": "[11]", "result": -3.9, "unit": "%"}]}]}
